Values belong to the compound of their own block, whether it stands above or below them. Active and inactive are the calls of the source. The rule behind the calls is not given here.
Key:
[1] = system: Escherichia coli; test: Inhibition of recombinant Escherichia coli O104:H4 Beta-1,3-galactosyltransferase WbwC expressed in Escherichia coli BL21 at 0.5 mM in presence of UDP-[3H]Gal and GalNAC-PO3-PO3-(CH2)11-O-phenyl after 1 hr by scintillation counting method relative to control
[2] = Inhibition of recombinant Escherichia coli O104:H4 Beta-1,3-galactosyltransferase WbwC expressed in Escherichia coli BL21 in presence of UDP-[3H]Gal and GalNAC-PO3-PO3-(CH2)11-O-phenyl after 1 hr by scintillation counting method
[3] = system: PC-3; test: Growth inhibition of human PC3 cells after 24 hrs by MTT assay; assay type: cell-based; settings: pc-3, 24 h
[4] = system: A549; test: Growth inhibition of human A549 cells after 24 hrs by MTT assay; assay type: cell-based; settings: a549, 24 h
[5] = system: PC-3; test: Growth inhibition of human PC3 cells at 0.5 mM after 24 hrs by MTT assay; assay type: cell-based; settings: pc-3, 24 h, 500 µM
[6] = system: AD293; test: Growth inhibition of human AD293 cells at 0.5 mM after 24 hrs by MTT assay; assay type: cell-based; settings: ad293, 24 h, 500 µM
[7] = Growth inhibition of human OC-3-VGH cells at 0.5 mM after 24 hrs by MTT assay; assay type: cell-based; settings: read-out: GI
[8] = system: OC-3-VGH; test: Growth inhibition of human OC-3-VGH cells after 24 hrs by MTT assay; assay type: cell-based
[9] = system: AD293; test: Growth inhibition of human AD293 cells after 24 hrs by MTT assay; assay type: cell-based; settings: ad293, 24 h
[10] = system: A549; test: Growth inhibition of human A549 cells at 0.5 mM after 24 hrs by MTT assay; assay type: cell-based; settings: a549, 24 h, 500 µM
[11] = target: T1, Beta-1,4-galactosyltransferase 1 (Bos taurus) (UniProt P08037); test: Inhibition of bovine milk Beta-1,4-galactosyltransferase at 0.5 mM in presence of UDP-[3H]Gal and GlcNAc-beta-Bn after 1 hr by scintillation counting method
T1 sequence (whole entry): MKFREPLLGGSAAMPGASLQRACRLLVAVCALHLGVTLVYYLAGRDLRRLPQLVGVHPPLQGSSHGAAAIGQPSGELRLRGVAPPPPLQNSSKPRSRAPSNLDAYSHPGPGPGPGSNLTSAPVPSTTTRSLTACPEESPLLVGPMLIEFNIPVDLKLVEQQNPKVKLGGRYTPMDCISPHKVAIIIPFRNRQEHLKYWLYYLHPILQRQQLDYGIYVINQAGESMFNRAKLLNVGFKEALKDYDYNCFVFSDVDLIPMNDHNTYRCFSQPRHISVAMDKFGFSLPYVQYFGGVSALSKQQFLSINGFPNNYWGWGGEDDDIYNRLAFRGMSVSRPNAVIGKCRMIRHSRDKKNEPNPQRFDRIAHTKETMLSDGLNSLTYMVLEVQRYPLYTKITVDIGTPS

[12] = system: A549; test: Growth inhibition of human A549 cells at 50 uM after 24 hrs by MTT assay; assay type: cell-based; settings: a549, 24 h
[13] = system: OC-3-VGH; test: Growth inhibition of human OC-3-VGH cells at 50 uM after 24 hrs by MTT assay; assay type: cell-based
[14] = system: AD293; test: Growth inhibition of human AD293 cells at 50 uM after 24 hrs by MTT assay; assay type: cell-based; settings: ad293, 24 h
[15] = system: Pseudomonas aeruginosa; test: Antimicrobial activity against Pseudomonas aeruginosa PAO1 assessed as inhibition of colony formation at 50 uM preincubated for 4 hrs and measured after overnight incubation by CFU assay; assay type: functional
[16] = system: Pseudomonas aeruginosa; test: Antimicrobial activity against Pseudomonas aeruginosa PAO1 assessed as inhibition of colony formation at 25 uM preincubated for 4 hrs and measured after overnight incubation by CFU assay; assay type: functional
[17] = system: Escherichia coli; test: Antimicrobial activity against Escherichia coli BL21 assessed as inhibition of colony formation at 25 uM preincubated for 4 hrs and measured after overnight incubation by CFU assay; assay type: functional
[18] = system: Escherichia coli; test: Antimicrobial activity against Escherichia coli BL21 assessed as inhibition of colony formation at 10 uM preincubated for 4 hrs and measured after overnight incubation by CFU assay; assay type: functional
[19] = system: Staphylococcus epidermidis; test: Antimicrobial activity against Staphylococcus epidermidis assessed as inhibition of colony formation at 10 uM preincubated for 4 hrs and measured after overnight incubation by CFU assay; assay type: functional
[20] = system: Escherichia coli; test: Antimicrobial activity against Escherichia coli BL21 assessed as inhibition of colony formation at 5 uM preincubated for 4 hrs and measured after overnight incubation by CFU assay; assay type: functional
[21] = system: Pseudomonas aeruginosa; test: Antimicrobial activity against Pseudomonas aeruginosa PAO1 assessed as inhibition of colony formation at 10 uM preincubated for 4 hrs and measured after overnight incubation by CFU assay; assay type: functional
[22] = system: Bacillus subtilis; test: Antimicrobial activity against Bacillus subtilis assessed as inhibition of colony formation at 25 uM preincubated for 4 hrs and measured after overnight incubation by CFU assay; assay type: functional
[23] = system: Staphylococcus epidermidis; test: Antimicrobial activity against Staphylococcus epidermidis assessed as inhibition of colony formation at 5 uM preincubated for 4 hrs and measured after overnight incubation by CFU assay; assay type: functional
[24] = system: Bacillus subtilis; test: Antimicrobial activity against Bacillus subtilis assessed as inhibition of colony formation at 10 uM preincubated for 4 hrs and measured after overnight incubation by CFU assay; assay type: functional
[25] = system: Pseudomonas aeruginosa; test: Antimicrobial activity against Pseudomonas aeruginosa PAO1 assessed as inhibition of colony formation at 5 uM preincubated for 4 hrs and measured after overnight incubation by CFU assay; assay type: functional
[26] = system: Bacillus subtilis; test: Antimicrobial activity against Bacillus subtilis assessed as inhibition of colony formation at 5 uM preincubated for 4 hrs and measured after overnight incubation by CFU assay; assay type: functional
[27] = system: Staphylococcus epidermidis; test: Antimicrobial activity against Staphylococcus epidermidis assessed as inhibition of colony formation at 25 uM preincubated for 4 hrs and measured after overnight incubation by CFU assay; assay type: functional
[28] = system: OC-3-VGH; test: Inhibition of cell migration in human OC-3-VGH cells at 500 uM incubated for 18 hrs by scratch wound healing assay; assay type: cell-based
[29] = Growth inhibition of human OC-3-VGH cells at 1 mM after 24 hrs by MTT assay; assay type: cell-based; settings: read-out: GI

inhibition [1]: 98% | IC50 [2]: 62 µM
Structure (SMILES): CCCCCCCCCCC[n+]1ccn(CCCCCCCCCCn2cc[n+](CCCCCCCCCCC)c2)c1

inhibition [1]: 92% | IC50 [2]: 147 µM
Structure (SMILES): CCCCCCCCCC[n+]1ccn(CCCCCCCCCCCCCCCCn2cc[n+](CCCCCCCCCC)c2)c1

inhibition [1]: 98% | IC50 [2]: 152 µM
Structure (SMILES): CCCCCCCCCC[n+]1ccn(CCCCCCCCCCn2cc[n+](CCCCCCCCCC)c2)c1

inhibition [1]: 92% | IC50 [2]: 123 µM
Structure (SMILES): CCCCCCCCCCC[n+]1ccn(CCCCCCCCCCCCCCCCn2cc[n+](CCCCCCCCCCC)c2)c1
inhibition at 25 µM [17]: 100% | inhibition at 10 µM [18]: 100% | inhibition at 10 µM [19]: 100% | inhibition at 5 µM [20]: 100% | inhibition at 25 µM [16]: 100% | inhibition at 10 µM [21]: 77% | inhibition at 25 µM [22]: 100% | inhibition at 5 µM [23]: 100% | inhibition at 10 µM [24]: 100% | inhibition at 5 µM [25]: 28% | inhibition at 5 µM [26]: 100% | inhibition at 25 µM [27]: 100%

inhibition [1]: 91% | inhibition [11]: Active | IC50 [2]: 59 µM
Structure (SMILES): CCCCCCCCCCCC[n+]1ccn(CCCCCCCCCCn2cc[n+](CCCCCCCCCCCC)c2)c1
inhibition at 25 µM [17]: 100% | inhibition at 10 µM [18]: 100% | inhibition at 10 µM [19]: 100% | inhibition at 5 µM [20]: 100% | inhibition at 25 µM [16]: < 98% | inhibition at 10 µM [21]: 100% | inhibition at 25 µM [22]: 100% | inhibition at 5 µM [23]: 100% | inhibition at 10 µM [24]: 100% | inhibition at 5 µM [25]: > 98% | inhibition at 5 µM [26]: 100% | inhibition at 25 µM [27]: 100%

inhibition [1]: 90% | inhibition [11]: Active | IC50 [2]: 43 µM
Structure (SMILES): CCCCCCCCCCCC[n+]1ccn(CCCCCCn2cc[n+](CCCCCCCCCCCC)c2)c1

inhibition [1]: 95% | IC50 [2]: 11 µM
Structure (SMILES): CCCCCCC[n+]1ccn(CCCCCCCCCCCCCCCCn2cc[n+](CCCCCCC)c2)c1

Second part, the compound before the results:

Structure (SMILES): C[n+]1ccn(CCCCCCCCn2cc[n+](C)c2)c1
inhibition [1]: 21%

Structure (SMILES): C[n+]1ccn(CCCCCCCCCCCCCCCCCCn2cc[n+](C)c2)c1.[Cl-].[Cl-]
growth inhibition (GI) [3]: Toxic | growth inhibition (GI) [4]: Toxic | growth inhibition (GI) [5]: Toxic | inhibition [1]: < 1% | growth inhibition (GI) [6]: Toxic | inhibition at 24 h, 500 µM [7]: 80% | IC50 [8]: 5 to 12 µM | growth inhibition (GI) [9]: Toxic | growth inhibition (GI) [10]: Toxic

Structure (SMILES): CCCCCCCCCC[n+]1ccn(CCCCCCn2cc[n+](CCCCCCCCCC)c2)c1
inhibition [1]: 92% | inhibition [11]: Active | IC50 [2]: 263 µM

Structure (SMILES): CCCCCCCC[n+]1ccn(CCCCCCn2cc[n+](CCCCCCCC)c2)c1
inhibition [1]: 13%

Structure (SMILES): c1cn(CCCCCCCCCCCCCCCCCCn2ccnc2)cn1
growth inhibition (GI) [12]: Non-Toxic | growth inhibition (GI) [13]: Non-Toxic | growth inhibition (GI) [14]: Non-Toxic

Structure (SMILES): C[n+]1ccn(CCCCCCCCCCCCCCCCCCCCCCn2cc[n+](C)c2)c1
inhibition at 50 µM [15]: 100% | inhibition [1]: 91% | inhibition at 25 µM [16]: > 95% | IC50 [2]: 159 µM

Structure (SMILES): CCCCCCC[n+]1ccn(CCCCCCCCCCn2cc[n+](CCCCCCC)c2)c1
inhibition [1]: < 1%

Structure (SMILES): C[n+]1ccn(CCCCn2cc[n+](C)c2)c1
inhibition at 50 µM [15]: 0% | inhibition [1]: 9%

Structure (SMILES): CS(=O)(=O)[O-].CS(=O)(=O)[O-].C[n+]1ccn(CCCCCCCCCCCCCCCCCCCCn2cc[n+](C)c2)c1
inhibition at 50 µM [15]: > 90% | growth inhibition (GI) [3]: Toxic | growth inhibition (GI) [4]: Toxic | growth inhibition (GI) [5]: Toxic | inhibition [1]: 91% | growth inhibition (GI) [6]: Toxic | inhibition at 24 h, 500 µM [7]: 80% | IC50 [8]: 5 to 12 µM | inhibition (INH) [28]: Active | IC50 [2]: 230 µM | growth inhibition (GI) [9]: Toxic | growth inhibition (GI) [10]: Toxic

Structure (SMILES): CCCC(=O)N[C@@H]1[C@@H](O)[C@H](O)[C@@H](CO)O[C@H]1Sc1ccc2ccccc2c1
inhibition [15]: inactive | inhibition [11]: inactive | inhibition at 24 h, 1000 µM [29]: 50%
